The target in one data set is CDC2 (Homo sapiens, UniProt P06493). Briefly: KiNativ, OCI cells live cell. It counts as cell-based. Conditions: 2 h.
The next data set deals with CDK11, CDK8. The data set is described as follows: KiNativ, OCI cells live cell. It counts as cell-based, human. Conditions: labeling site Lys2, peptide DLKPANILVMGEGPER
The subject of the next data set is Wnk1, Wnk2. Briefly: KiNativ, OCI cells live cell. It counts as cell-based, human. The following applies: labeling site ATP Loop, peptide GSFKTVYK
For the next data set, the target named is T1, JAK2 domain2 (Homo sapiens, UniProt O60674).
T1 construct: JAK2 domain2
Briefly: KiNativ, OCI cells live cell. It counts as cell-based. The following applies: labeling site Activation Loop, peptide IGDFGLTKVLPQDKEYYK

The next data set has as its system dermal fibroblasts. The data set is described as follows: MTT viability assay, normal cells. The following applies: 2 donors, 72 h. It is filed as cell-based, human. As for the experimental part:
Cell viability of primary samples
HS5-GFP human bone marrow stromal cells were plated and cultured for 72 hours to near confluence.
MOLM13 cells were then seeded onto HS5-GFP cells to establish a co-culture. Twenty-four hours later, cells were treated with increasing concentrations of drug for an additional 72 hours. MOLM13 and HS5-GFP cells were then separated and MTT assay s were performed for cell viability assessment of each cell population.
For murine or human primary AML cells, 100,000 cells/well were plated in a 96-well plate and treated with increasing concentrations of drug. Cell viability, via trypan blue, was measured every 24 hours. If the viability fell below 50% or at 72 hours of treatment, whichever came earlier, cell viability of each plate was measured via CellTiter-Glo. Primary human AML cells were obtained from the OSUCCC Leukemia Tissue Bank Shared […]
For primary human fibroblasts, cells were plated at 10,000 cells/well in a 96-well plate and cultured for 24 hours. After 24 hours, cells were treated with drug for 72 hours. A MTT assay was performed to assess cell […]
Primary AML samples were analyzed by targeted gene sequencing of 80 genes, as previously described (1). Samples were pooled and analyzed on a MiSeq system using the Illuminia MiSeq Reagent Kit v3. Ill umina Isis Banded Smith Waterman aligner and hg19 genome were used to align the sequences. […]
For orientation: Tetrazolium dyes change colour on reduction, which living cells bring about.

Another data set concerns the target T2, RSK3 domain1 (Homo sapiens, UniProt Q15349).
T2 construct: RSK3 domain1
Briefly: KiNativ, OCI cells live cell. It counts as cell-based. The following applies: 2 h, labeling site Lys2, peptide […].

In a further data set the target is MAP2K1 (Homo sapiens, UniProt Q02750). Briefly: KiNativ, OCI cells live cell. It counts as cell-based. The following applies: 2 h, labeling site Lys2, peptide […].
Chain of MAP2K1 (Q02750 whole entry): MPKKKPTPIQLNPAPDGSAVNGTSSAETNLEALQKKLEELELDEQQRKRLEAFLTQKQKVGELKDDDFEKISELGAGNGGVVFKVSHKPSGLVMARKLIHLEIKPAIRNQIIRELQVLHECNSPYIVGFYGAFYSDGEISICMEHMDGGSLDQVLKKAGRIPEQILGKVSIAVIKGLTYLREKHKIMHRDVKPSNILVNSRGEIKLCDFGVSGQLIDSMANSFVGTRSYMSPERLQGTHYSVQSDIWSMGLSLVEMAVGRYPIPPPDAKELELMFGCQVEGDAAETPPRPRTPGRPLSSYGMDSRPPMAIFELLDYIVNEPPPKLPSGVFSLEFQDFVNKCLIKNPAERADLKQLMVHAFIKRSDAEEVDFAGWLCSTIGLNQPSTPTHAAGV
The next data set deals with MAP3K4 (Homo sapiens, UniProt Q9Y6R4). The data set is described as follows: KiNativ, OCI cells live cell. Conditions: 2 h. It counts as cell-based.
Chain of MAP3K4 (Q9Y6R4 whole entry): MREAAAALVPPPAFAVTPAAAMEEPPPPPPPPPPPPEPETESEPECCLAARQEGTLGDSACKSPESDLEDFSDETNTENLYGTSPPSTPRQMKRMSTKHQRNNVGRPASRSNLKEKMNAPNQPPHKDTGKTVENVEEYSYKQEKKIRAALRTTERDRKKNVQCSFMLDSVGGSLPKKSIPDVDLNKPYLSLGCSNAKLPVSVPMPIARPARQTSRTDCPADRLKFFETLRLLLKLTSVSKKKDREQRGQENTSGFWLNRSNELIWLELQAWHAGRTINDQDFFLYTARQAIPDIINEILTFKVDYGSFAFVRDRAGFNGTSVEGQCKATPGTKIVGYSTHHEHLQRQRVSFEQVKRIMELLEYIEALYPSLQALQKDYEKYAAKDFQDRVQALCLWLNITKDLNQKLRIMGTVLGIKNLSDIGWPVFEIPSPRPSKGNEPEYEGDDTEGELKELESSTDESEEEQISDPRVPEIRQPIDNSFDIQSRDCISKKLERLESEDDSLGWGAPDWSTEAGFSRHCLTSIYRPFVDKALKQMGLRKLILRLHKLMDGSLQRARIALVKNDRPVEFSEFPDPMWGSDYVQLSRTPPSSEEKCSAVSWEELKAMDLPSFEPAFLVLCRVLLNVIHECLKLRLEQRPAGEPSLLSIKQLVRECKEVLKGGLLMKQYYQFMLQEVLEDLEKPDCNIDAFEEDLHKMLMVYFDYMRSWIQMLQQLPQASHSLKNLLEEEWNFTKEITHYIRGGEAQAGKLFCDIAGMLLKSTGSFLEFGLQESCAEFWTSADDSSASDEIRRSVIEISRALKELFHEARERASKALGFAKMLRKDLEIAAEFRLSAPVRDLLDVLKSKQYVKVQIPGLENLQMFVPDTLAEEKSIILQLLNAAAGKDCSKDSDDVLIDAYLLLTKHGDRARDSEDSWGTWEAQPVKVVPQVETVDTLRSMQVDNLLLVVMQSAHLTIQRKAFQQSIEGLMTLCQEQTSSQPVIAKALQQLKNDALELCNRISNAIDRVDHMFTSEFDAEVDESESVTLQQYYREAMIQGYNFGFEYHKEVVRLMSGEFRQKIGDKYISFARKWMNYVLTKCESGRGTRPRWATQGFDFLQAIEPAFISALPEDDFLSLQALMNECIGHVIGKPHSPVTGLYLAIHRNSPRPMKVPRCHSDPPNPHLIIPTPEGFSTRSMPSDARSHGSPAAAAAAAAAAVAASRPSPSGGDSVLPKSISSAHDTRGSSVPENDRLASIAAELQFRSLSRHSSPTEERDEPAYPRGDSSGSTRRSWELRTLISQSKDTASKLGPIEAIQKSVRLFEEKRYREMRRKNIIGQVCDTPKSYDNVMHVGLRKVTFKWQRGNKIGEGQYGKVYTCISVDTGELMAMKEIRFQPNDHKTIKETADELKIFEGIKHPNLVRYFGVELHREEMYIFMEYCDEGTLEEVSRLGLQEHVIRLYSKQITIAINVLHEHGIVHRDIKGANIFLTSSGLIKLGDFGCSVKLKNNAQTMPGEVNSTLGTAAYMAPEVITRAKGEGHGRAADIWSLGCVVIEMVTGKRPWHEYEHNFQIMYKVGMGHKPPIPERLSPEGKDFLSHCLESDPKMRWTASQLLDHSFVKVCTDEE
For data set [1], the system named is native kinases in MOLM13 cells. The data set is described as follows: KiNativ in situ kinase profiling, MOLM13 cells. It is filed as cell-based, human. Conditions: 100 nM, compared with DMSO. As for the experimental part: Samples were analyzed by KiNativ in situ kinase profiling by ActivX Biosciences.
Another data set concerns the target T3, JAK3 domain2 (Homo sapiens, UniProt P52333).
T3 construct: JAK3 domain2
Briefly: KiNativ, OCI cells live cell. It counts as cell-based. The following applies: 2 h, labeling site Lys1, peptide […].

A further data set deals with EphB3 (Homo sapiens, UniProt P54753). Briefly: KiNativ, OCI cells live cell. Conditions: 2 h, labeling site Activation Loop, peptide […]. It counts as cell-based.
Chain of EphB3 (P54753 34-998): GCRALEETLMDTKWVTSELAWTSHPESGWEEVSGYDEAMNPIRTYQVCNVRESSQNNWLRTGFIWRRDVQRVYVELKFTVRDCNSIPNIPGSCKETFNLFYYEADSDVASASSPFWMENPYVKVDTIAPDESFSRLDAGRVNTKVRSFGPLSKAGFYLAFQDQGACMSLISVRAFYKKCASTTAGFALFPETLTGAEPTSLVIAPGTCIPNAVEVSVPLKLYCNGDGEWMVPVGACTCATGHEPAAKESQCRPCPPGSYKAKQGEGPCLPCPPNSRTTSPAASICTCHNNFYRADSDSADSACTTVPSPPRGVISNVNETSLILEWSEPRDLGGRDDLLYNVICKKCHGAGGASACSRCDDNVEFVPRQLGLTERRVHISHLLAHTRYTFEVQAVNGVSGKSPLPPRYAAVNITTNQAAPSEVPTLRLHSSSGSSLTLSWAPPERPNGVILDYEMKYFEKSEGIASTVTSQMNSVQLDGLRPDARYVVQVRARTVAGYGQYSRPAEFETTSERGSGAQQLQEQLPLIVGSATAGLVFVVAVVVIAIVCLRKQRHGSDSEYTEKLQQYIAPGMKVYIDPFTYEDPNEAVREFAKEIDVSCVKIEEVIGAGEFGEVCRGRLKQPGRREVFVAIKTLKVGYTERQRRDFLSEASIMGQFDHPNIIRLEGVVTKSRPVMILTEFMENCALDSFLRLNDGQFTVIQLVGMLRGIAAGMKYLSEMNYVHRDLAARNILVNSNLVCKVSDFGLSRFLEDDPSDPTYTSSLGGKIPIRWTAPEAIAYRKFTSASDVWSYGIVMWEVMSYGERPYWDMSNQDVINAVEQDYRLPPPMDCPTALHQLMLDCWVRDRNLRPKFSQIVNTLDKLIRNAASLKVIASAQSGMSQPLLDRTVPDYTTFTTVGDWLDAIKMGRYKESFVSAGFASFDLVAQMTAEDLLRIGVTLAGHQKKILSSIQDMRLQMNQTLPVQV
The target of a further data set is PEK (Homo sapiens, UniProt Q9NZJ5). Briefly: KiNativ, OCI cells live cell. It counts as cell-based. The following applies: 2 h, labeling site Lys2, peptide […].
Another data set has as its target eEF2K (Homo sapiens, UniProt O00418). Briefly: KiNativ, OCI cells live cell. Conditions: 2 h, labeling site ATP, peptide […]. It counts as cell-based.
Another data set deals with MST4, YSK1. The data set is described as follows: KiNativ, OCI cells live cell. It counts as cell-based, human. Conditions: labeling site Lys2, peptide DIKAANVLLSEQGDVK
The next data set deals with MAST1, MAST2. The data set is described as follows: KiNativ, OCI cells live cell. It is filed as cell-based, human. The following applies: labeling site Lys2, peptide DLKPDNLLITSMGHIK
Another data set concerns cord blood CD34+ cells. The data set is described as follows: CFU assay, normal cells. It counts as cell-based, human. The following applies: 2 donors. As for the experimental part: For human primary CFU assays, cells were cultured in MethoCult H4035 Optimum without EPO (Stemcell Technologies). For mouse primary CFU assays, cells were directly cultured in MethoCult M3231 (Stemcell Technologies) supplemented with 45 ng/mL of murine IL-6 (mIL-6), mIL-3, and mSCF. Both human and mouse primary cells 10,000 cells were plated in duplicate for each drug concentration. For cell line CFU assays, MV4-11 cells were treated with drugs in the presence of 20 ng/mL IL-3, GM-CSF, or FGF2. Cells were plated in MethoCult H4230 (Stemcell Technologies) in duplicates at 250 cells/plate. Plates were placed in a 37°C incubator for 7 or 14 days for human cell lines and for mouse or human primary cells, respectively. Colonies were identified as clusters containing 40 or more cells. For CFU assays using human primary CD34^+ cells, umbilical cord blood was obtained from the OSU Comprehensive Cancer Center (CCC) Leukemia Tissue Bank Shared Resource, and mononuclear cells were isolated by using density gradient centrifugation. CD34^+ cells were purified using the CD34 UltraPure MicroBead Kit (Miltenyi Biotec) according to the manufacturer’s instructions. CFU assay with CD34^+ cells was performed as described above, and the total number of colonies were counted after 7–10 days.

The target in the next data set is T4, AURKB (Homo sapiens, UniProt Q96GD4).
T4 construct: purchased Eurofins DiscoverX
T4 sequence (Q96GD4 whole entry): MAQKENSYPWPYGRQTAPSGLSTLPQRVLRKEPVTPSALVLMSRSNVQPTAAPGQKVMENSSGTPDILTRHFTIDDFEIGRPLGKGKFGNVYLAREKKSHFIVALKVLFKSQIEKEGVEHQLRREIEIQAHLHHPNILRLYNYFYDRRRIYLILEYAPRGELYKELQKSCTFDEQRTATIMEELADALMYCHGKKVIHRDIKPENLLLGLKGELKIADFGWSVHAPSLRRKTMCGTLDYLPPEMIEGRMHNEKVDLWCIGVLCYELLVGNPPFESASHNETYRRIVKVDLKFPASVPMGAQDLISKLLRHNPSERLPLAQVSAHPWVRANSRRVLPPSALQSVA
Briefly: KdELECT binding assay.

The next data set concerns the target p70S6Kb (Homo sapiens, UniProt Q9UBS0). The data set is described as follows: KiNativ, OCI cells live cell. It counts as cell-based. Conditions: 2 h.
The next data set addresses SNRK (Homo sapiens, UniProt Q9NRH2). Briefly: KiNativ, OCI cells live cell. It is filed as cell-based. The following applies: 2 h, labeling site Lys1, peptide […].

pKd: −log10 of the molar value.

As usually defined, the inhibition is the change of the read-out against control, counted positive when it falls. The term Inhibition denotes the change of the read-out against control, counted positive when it falls. As a reminder, the pKd is the negative decadic logarithm of the Kd, by convention in mol/L. Low values mean a large Kd, high ones a small Kd.

Chain of CDC2 (P06493 whole entry): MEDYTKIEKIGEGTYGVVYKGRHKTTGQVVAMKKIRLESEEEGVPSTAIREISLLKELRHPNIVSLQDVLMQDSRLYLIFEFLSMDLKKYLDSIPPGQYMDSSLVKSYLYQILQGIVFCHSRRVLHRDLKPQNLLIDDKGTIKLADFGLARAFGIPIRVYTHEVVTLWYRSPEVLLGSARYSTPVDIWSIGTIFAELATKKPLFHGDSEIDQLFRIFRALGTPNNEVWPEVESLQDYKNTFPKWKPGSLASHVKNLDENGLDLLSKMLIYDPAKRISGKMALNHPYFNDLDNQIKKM
Chain of p70S6Kb (Q9UBS0 whole entry): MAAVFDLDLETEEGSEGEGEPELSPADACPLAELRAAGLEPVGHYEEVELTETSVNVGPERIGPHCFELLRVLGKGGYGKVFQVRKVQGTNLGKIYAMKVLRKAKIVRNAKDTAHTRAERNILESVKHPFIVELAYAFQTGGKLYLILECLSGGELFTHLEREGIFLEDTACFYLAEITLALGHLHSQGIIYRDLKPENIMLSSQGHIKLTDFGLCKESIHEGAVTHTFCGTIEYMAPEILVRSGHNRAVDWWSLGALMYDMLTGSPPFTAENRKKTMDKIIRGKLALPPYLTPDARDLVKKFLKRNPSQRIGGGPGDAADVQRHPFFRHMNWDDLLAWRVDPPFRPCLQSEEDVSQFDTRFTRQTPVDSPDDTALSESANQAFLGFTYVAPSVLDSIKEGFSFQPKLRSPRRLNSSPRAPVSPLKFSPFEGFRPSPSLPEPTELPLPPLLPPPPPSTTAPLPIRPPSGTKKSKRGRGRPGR
Chain of eEF2K (O00418 whole entry): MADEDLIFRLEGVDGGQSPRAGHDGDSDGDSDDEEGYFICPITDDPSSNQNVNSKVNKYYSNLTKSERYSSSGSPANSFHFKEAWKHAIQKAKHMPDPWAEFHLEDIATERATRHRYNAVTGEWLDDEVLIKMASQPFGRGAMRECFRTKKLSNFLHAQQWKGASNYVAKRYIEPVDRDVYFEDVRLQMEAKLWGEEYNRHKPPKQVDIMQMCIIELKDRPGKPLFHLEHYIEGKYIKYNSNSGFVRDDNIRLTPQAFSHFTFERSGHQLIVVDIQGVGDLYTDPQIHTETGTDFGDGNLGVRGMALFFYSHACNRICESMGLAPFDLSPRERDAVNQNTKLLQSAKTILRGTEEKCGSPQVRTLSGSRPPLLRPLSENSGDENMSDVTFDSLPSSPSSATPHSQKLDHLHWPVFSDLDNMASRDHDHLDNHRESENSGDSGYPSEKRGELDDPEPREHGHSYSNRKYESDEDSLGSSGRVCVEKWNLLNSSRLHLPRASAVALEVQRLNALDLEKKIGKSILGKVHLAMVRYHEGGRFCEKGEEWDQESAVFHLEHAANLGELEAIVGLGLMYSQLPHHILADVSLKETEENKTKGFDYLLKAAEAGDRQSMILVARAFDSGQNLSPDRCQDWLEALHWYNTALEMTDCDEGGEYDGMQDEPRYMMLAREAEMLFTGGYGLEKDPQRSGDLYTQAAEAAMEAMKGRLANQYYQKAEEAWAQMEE

For the compound `CN1CCN(Cc2ccc(Nc3ncc(Cl)c(Nc4ccccc4S(=O)(=O)N(C)C)n3)cc2)CC1` [TP-0903], the inhibition at 0.1 µM on CDC2 (labeling site Lys1, peptide TTGQVVAMKK) was -4.5%; against CDC2 (labeling site Lys2, peptide DLKPQNLLIDDK), -2.5%; on CDC2 (labeling site Protein Kinase Domain, peptide KPLFHGDSEIDQLFR), -37.1%; against RSK3 domain1, 53.5%; on MAP2K1 it was 14.7%; against MAP3K4 (labeling site Lys1, peptide VYTCISVDTGELMAMKEIR) it was 2.7%. For the same compound, the inhibition at 0.1 µM was 24.7% against MAP3K4 (labeling site Lys2, peptide DIKGANIFLTSSGLIK); 31% against JAK3 domain2; 17.1% against EphB3; -9.6% against PEK; 12.4% at eEF2K; -2.8% against p70S6Kb (labeling site Lys1, peptide IYAMKVLR). In addition, the inhibition at 0.1 µM on p70S6Kb (labeling site Lys2, peptide DLKPENIMLSSQGHIK) is -18.3%; against SNRK, 1%. Moreover, the Inhibition is -14.9% with CDK11, CDK8; -19.4% with Wnk1, Wnk2; 36.2% on JAK2 domain2; 25.0% with MST4, YSK1; -5.0% in the data set with MAST1, MAST2. In the data set on dermal fibroblasts, the “Concentrations inhibiting viability of fibroblasts” value was ≥ 250 nM. Further, the “Inhibition of AURKA/B/C, CDK6/7, BTK, and JAK1” value in [1] is recorded as “moderate to strong inhibition”. For the same compound, the “Concentration inhibiting colony formation of CD34+ cells” value with cord blood CD34+ cells was found to be 200 nM. The pKd on AURKB is > 8.30.
